inhibition, melting point and Ki data for 39 compounds are collected here from patent US7125903B1 (Aventis Pharmaceuticals Inc., priority 1999, dated 2006).

For series [1], the target named is T1, human D4 receptor (D4.2 sub-type) (Homo sapiens, UniProt P21917, DEL265-296).
T1 construct: expressed in transfected cells
T1 sequence (P21917 with tags, fused parts or gaps DEL265-296): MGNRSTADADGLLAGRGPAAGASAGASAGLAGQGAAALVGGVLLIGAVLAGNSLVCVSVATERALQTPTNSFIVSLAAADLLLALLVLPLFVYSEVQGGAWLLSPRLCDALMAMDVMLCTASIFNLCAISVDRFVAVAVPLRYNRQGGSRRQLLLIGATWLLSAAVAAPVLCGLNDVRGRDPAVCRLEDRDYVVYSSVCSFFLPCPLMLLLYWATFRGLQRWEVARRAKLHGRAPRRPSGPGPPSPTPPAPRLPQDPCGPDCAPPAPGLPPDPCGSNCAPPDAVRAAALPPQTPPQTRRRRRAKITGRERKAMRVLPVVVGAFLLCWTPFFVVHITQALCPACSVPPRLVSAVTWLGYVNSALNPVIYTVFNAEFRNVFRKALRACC
In words: D4 receptor binding assay (3H-spiperone displacement). Particulars: for inhibition at 1 µM: 1 μM test compound, inhibition of 3H-spiperone binding, read-out: D4 RBA % Inhib. @ 1 μM; for Ki: 3H-spiperone 0.25 nM, membranes of HEK 298 cells with human D4.2, Cheng-Prusoff from IC50, read-out: D4 RBA Ki. The procedure: D4 receptor-binding affinities of the compounds were evaluated according to their ability to reduce binding of ^3H-spiperone as compared to the reference compound clozapine. The potency of the test compound to reduce ^3H-spiperone binding directly correlated to its binding affinity for the receptor.
[…] (human embryonic kidney) cells stably transfected with human D4 receptor (D4.2 sub-type) were grown in NUNC cell factories for 5 days (75% confluency) without a media change and removed with versene (approximately 19 mg of cells per cell factory tray). The cells were then centrifuged in a Sorval centrifuge for 10 min, 5000 rpm (GS3 rotor) and the pellets quickly frozen in liquid nitrogen and stored at −80° C. until used in binding assay. When used in the assay, cells were thawed on ice for 20 min and then 10 mL of incubation buffer (50 mM Tris, 1 mM EDTA, 4 mM MgCl2, 5 mM KCl, 1.5 mM CaCl2, 120 mM NaCl, pH 7.4) was added. The cells were then vortexed to resuspend pellet and homogenized with a Kinematica, CH-6010 Kriens-LU, homogenizer for 15 seconds at setting 7. Concentration of receptor protein was determined using the Pierce BCA assay.
The incubation was started by the addition of 100 μl (50 μg protein) membrane homogenate to a solution of 300 μl incubation buffer and 100 μl (0.25 nM final conc.) ^3H-spiperone (90 Ci/mmol, Amersham, diluted in borosilicate glass vial) in 96-well polypropylene plates (1 mL per well). The plates were vortexed and incubated at room temperature for 90 minutes. The binding reaction was stopped by filtering using a Packard Harvester. The samples were filtered under vacuum over glass fibre filter plates (Whatman GF/B) presoaked for 2 hours in 0.3% polyethylenimine (PEI) in 50 mM Tris buffer (pH 7.4). The filters were then washed 6 times with 7 mL ice cold 50 mM Tris buffer (pH 7.4). The filter plates were dried overnight and 35 μl of Microscint-O (Packard) was added. The plates were sealed and counted in the Packard Top Count (3 minutes per well).
The incubation was started by the addition of 100 μl (50 μg protein) membrane homogenate to a solution of 200 μl incubation buffer, 100 μl ^3H-spiperone (90 Ci/mmol, Amersham, diluted in borosilicate glass vial to 0.25 nM final conc.) and 100 μl (30 μM final conc.) of fresh dopamine (Research Biochemicals Inc., light protected and dissolved in incubation buffer) in 96-well polypropylene plates (1 mL per well). The plates were vortexed and incubated at room temperature for 90 minutes at which time the binding reaction was stopped by filtering. The filters were washed and counted using the same procedure as in the total binding assay described above to give the nonspecific binding value (NSB).
The incubation was started by the addition, in 96-well polypropylene plates (1 mL per well), of 100 μl (50 μg protein) membrane homogenate to a solution of 200 μl incubation buffer, 100 μl (0.25 nM final conc.) ^3H-spiperone (90 Ci/mmol, Amersham, diluted in borosilicate glass vial) and 100 μl of test compound that was prepared from 1 mM stock dissolved in DMSO and stored at −20° C. in polypropylene cryogenic storage vials until dilution in incubation buffer in 96-well polypropylene plates. The plates were vortexed and incubated at room temperature for 90 minutes at which time the binding reaction was stopped by filtering. The filters were washed and counted using the same procedure as in the total binding assay described above to give the displacement binding value (BD).
The test compounds were initially assayed at 1 and 0.1 μM and then at a range of concentrations chosen such that the middle dose would cause about 50% inhibition of ^3H-spiperone binding. Specific binding in the absence of test compound (B0) was the difference of total binding (BT) minus non-specific binding (NSB) and similarly specific binding (in the presence of test compound) (B) was the difference of displacement binding (BD) minus non-specific binding (NSB). […]

Structures can show the parent of a compound that is named as a salt.

In the case of `Cn1nc(-c2cccc(OC[C@H](O)CN3CCC(C(=O)c4ccc(F)cc4)CC3)c2)c2sccc21` [Example 102], the inhibition at 1 µM in series [1] amounted to 97%.

Consider `O[C@H](CNCC1CCCCC1)COc1cccc(-c2noc3ccsc23)c1` [Example 92], for which, in series [1], the inhibition at 1 µM stood at 94%.

Regarding `O[C@@H](COc1cccc(-c2noc3ccsc23)c1)CN1CCN(Cc2ccc3c(c2)OCO3)CC1` [Example 35], in series [1], the inhibition at 1 µM worked out at 57%.

What is called melting point is the temperature of the solid-liquid transition. As for `O[C@@H](COc1cccc(-c2noc3ccsc23)c1)CN1CCN(c2ccccc2F)CC1` [Example 44, (2R)-1-[4-(2-fluorophenyl)piperazin-1-yl]-3-(3-thieno[2,3-d]isoxazol-3-yl-phenoxy)-propan-2-ol], the melting point fell in the range of 96 to 99 °C.

In the case of `Cn1nc(-c2cccc(OC[C@H](O)CN3CCN(c4ncccn4)CC3)c2)c2sccc21` [Example 101], the inhibition at 1 µM in series [1] amounted to 89%.

Usually Ki stands for the dissociation constant of the complex between target and ligand, obtained from inhibition or displacement. In the case of `O[C@H](CNCc1ccco1)COc1cccc(-c2noc3ccsc23)c1` [Example 25], the Ki in series [1] amounted to 0.057 µM.

Take `O[C@H](CNC1Cc2ccccc2C1)COc1cccc(-c2noc3ccsc23)c1` [Compound 91 (HCl), (2R)-1-(indan-2-ylamino)-3-(3-thieno[2,3-d]isoxazol-3-yl-phenoxy)-propan-2-ol]: the Ki in series [1] is 0.017 µM.

Take `C[C@](O)(CNCc1cccc2ccccc12)COc1cccc(-c2noc3ccsc23)c1` [Example 57]: the inhibition at 1 µM in series [1] amounted to 96%.

Regarding `O[C@H](CNCc1cccs1)COc1ccc(-c2noc3ccsc23)cc1` [Example 43], the inhibition constant Ki in series [1] was 0.171 µM.

`O[C@@H](COc1cccc(-c2noc3ccsc23)c1)CN1CCN(c2cccc(Cl)c2)CC1` [Example 47, (2R)-1-[4-(3-chlorophenyl)piperazin-1-yl]-3-(3-thieno[2,3-d]isoxazol-3-yl-phenoxy)-propan-2-ol] yielded a melting point of 118 to 120 °C.

`O[C@@H](COc1cccc(-c2noc3ccsc23)c1)CN1CCN(c2ccccc2Cl)CC1` [Example 46, (2R)-1-[4-(2-chlorophenyl)piperazin-1-yl]-3-(3-thieno[2,3-d]isoxazol-3-yl-phenoxy)-propan-2-ol] came in with a melting point of 83 to 86 °C.

Take `O[C@H](CNC1Cc2ccccc2C1)COc1cccc(-c2noc3ccsc23)c1` [Compound 91 (base), (2R)-1-(indan-2-ylamino)-3-(3-thieno[2,3-d]isoxazol-3-yl-phenoxy)-propan-2-ol]: the inhibition constant Ki in series [1] is 0.013 µM.

`C[C@@H](NC[C@](C)(O)COc1cccc(-c2noc3ccsc23)c1)c1ccccc1` [Example 55]: the inhibition at 1 µM in series [1] was 72%.

Turning to `O[C@H](CNCc1ccco1)COc1ccc(-c2noc3ccsc23)cc1` [Example 42], the inhibition at 1 µM in series [1] turned out to be 44%.

Regarding `C[C@@](O)(CNCc1cccs1)COc1cccc(-c2noc3ccsc23)c1` [Compound 5 (freebase)], the Ki in series [1] turned out to be 0.026 µM.

`CN(Cc1ccccc1)C[C@](C)(O)COc1cccc(-c2noc3ccsc23)c1` [Example 66]: in series [1], the Ki was determined as 0.09 µM.

As for `COc1ccccc1N1CCN(C[C@@H](O)COc2ccc(-c3noc4ccsc34)cc2)CC1` [Example 45], the Ki in series [1] stood at 0.08 µM.

Turning to `C[C@H](NC[C@](C)(O)COc1cccc(-c2noc3ccsc23)c1)c1ccccc1` [Example 56], the inhibition at 1 µM in series [1] stood at 93%.

On to `CO[C@H](CNCc1ccccc1)COc1cccc(-c2noc3ccsc23)c1` [Example 39], for which the Ki in series [1] stood at 0.026 µM.

In the case of `O[C@@H](COc1cccc(-c2noc3ccsc23)c1)CN1CCN(c2nsc3ccccc23)CC1` [Example 76], the inhibitory constant (Ki) in series [1] stood at 0.006 µM.

In the case of `O[C@H](CNCc1ccsc1)COc1ccc(-c2noc3ccsc23)cc1` [Example 41], in series [1], the inhibition at 1 µM came out at 62%.

Consider `O[C@@H](COc1cccc(-c2noc3ccsc23)c1)CN1CCCCC1` [Example 98], for which the inhibition at 1 µM in series [1] was 85%.

Regarding `O[C@@H](COc1cccc(-c2noc3ccsc23)c1)CN1C2CCC1CC(c1noc3ccccc13)C2` (stereo partly drawn) [Example 75], the inhibitory constant (Ki) in series [1] was determined as 0.057 µM.

For `OC(COc1cccc(-c2noc3ccsc23)c1)CN1CCc2ccccc2C1` (racemic) [Compound 1, (±)-1-(3,4-dihydro-1H-isoquinolin-2-yl)-3-[3-(thieno[2,3-d]isoxazol-3-yl)phenoxy]-2-propanol hydrochloride], the inhibition at 1 µM in series [1] is 58%.

For `Cn1nc(-c2cccc(OC[C@H](O)CN3CCc4ccccc4C3)c2)c2sccc21` [Example 99], the inhibition at 1 µM in series [1] was determined as 95%.

Regarding `COc1ccccc1N1CCN(C[C@](C)(O)COc2cccc(-c3noc4ccsc34)c2)CC1` [Example 67], the inhibition constant (Ki) in series [1] is 0.019 µM.

For `O[C@H](CNCc1cccc2ccccc12)COc1cccc(-c2noc3ccsc23)c1` [Example 10], the Ki in series [1] is 0.103 µM.

With `C[C@@](O)(COc1cccc(-c2noc3ccsc23)c1)CN1CCN(c2ccccc2C#N)CC1` [Example 68], the inhibition constant (Ki) in series [1] came to 0.029 µM.

As for `Cn1nc(-c2cccc(OC[C@H](O)CN3CCC(n4c(=O)[nH]c5ccccc54)CC3)c2)c2sccc21` [Example 103], the inhibition at 1 µM in series [1] was determined as 91%.

For `O[C@@H](COc1cccc(-c2noc3ccsc23)c1)CN1CCC(O)(c2ccc(Cl)cc2)CC1` [Example 90], the inhibition at 1 µM in series [1] was 59%.

On to `O[C@@H](COc1cccc(-c2noc3ccsc23)c1)CN1CCN(c2ccccc2C(F)(F)F)CC1` [Example 36], for which the inhibitory constant (Ki) in series [1] worked out at 0.084 µM.

For the compound `Cn1nc(-c2cccc(OC[C@H](O)CN3CCN(c4ccccc4)CC3)c2)c2sccc21` [Example 100], in series [1], the inhibition at 1 µM stood at 90%.

Regarding `C[C@@](O)(CNCc1ccco1)COc1cccc(-c2noc3ccsc23)c1` [Example 17], in series [1], the inhibitory constant (Ki) stood at 0.045 µM.

For `CN(Cc1ccccc1)C[C@@H](O)COc1cccc(-c2noc3ccsc23)c1` [Compound 2], in series [1], the Ki was found to be 0.106 µM.

Regarding `O[C@@H](COc1cccc(-c2noc3ccsc23)c1)CN1CCN(c2ccc(Cl)cc2)CC1` [Compound 7, (2R)-1-[4-(4-chlorophenyl)piperazin-1-yl]-3-(3-thieno[2,3-d]isoxazol-3-yl-phenoxy)propan-2-ol hydrochloride], the inhibition constant (Ki) in series [1] was 0.0296 µM.

For `C[C@@](O)(CNCc1cccs1)COc1cccc(-c2noc3ccsc23)c1` [Compound 5 (maleate), (2R)-2-methyl-1-(3-thieno[2,3-d]isoxazol-3-yl-phenoxy)-3-[thienophen-2-ylmethyl)-amino-propan-2-ol maleate], the inhibitory constant (Ki) in series [1] is 0.0592 µM.

Consider `C[C@@](O)(CNCc1cccc2ccccc12)COc1cccc(-c2noc3ccsc23)c1` [Example 21], for which, in series [1], the Ki was determined as 0.055 µM.

As to `COc1ccccc1N1CCN(C[C@@H](O)COc2cccc(-c3noc4ccsc34)c2)CC1` [Compound 8], the Ki in series [1] is 0.0017 µM.

Take `O[C@H](CNC1CCc2ccccc21)COc1cccc(-c2noc3ccsc23)c1` (stereo partly drawn) [Example 93]: the inhibitory constant (Ki) in series [1] is 0.016 µM.
